Tests used:
Type in all cases: cell-based
[1] = system: ERK phosphorylation; assay: Western blot analysis of total and phosphorylated proteins; conditions: all tested cell lines
[2] = system: Mel888; assay: Short-term growth-inhibition assay, PLX-4720 (Example 1); conditions: Mel888 cell line; read-out: half-maximum inhibitory concentration (IC50)
Description: (§1) FIGS. 1A-1B: Short-term growth-inhibition assay of a panel of melanoma cell lines including BRAF (V600E) cell lines and an NRAS (Q61R) mutated cell line. FIG. 1A. Cells were treated with increasing concentrations of N-[3-[(5-Chloro-1H-pyrrolo[2,3-b]pyridin-3-yl)carbonyl]-2,4-difluorophenyl]-1-propanesulfonamide (PLX-4720) for 72 h and cell viability was determined using CellTiter-Blue by measuring the absorbance at 540 nm in a microplate reader. Error bars show data +standard error. Means were derived from four replicates (n=4). FIG. 1B. Long-term colony formation assay of the indicated cells. Cells were grown in the absence or presence of PLX-4720 at the indicated concentrations for 15-20 days. For each cell line, all dishes were fixed at the same time, stained and photographed.
(§2) Cell proliferation was measured using a WST-1 reagent (Roche Applied Science, IN, USA). Melanoma cells were plated with 5000 cells per well in 96-well tissue culture plates. After 24 hours, the cells were treated with drugs or DMSO at the indicated concentrations, in triplicates. WST-1 reagent was added to the wells and incubated at 37° C. for 2 hours before and after the treatment period of 48 hours. The plates were then read at 450 nm on a Wallac Victor^3 1420 Multilabel Counter (Perkin Elmer, ON, Canada). Absorbance readings are expressed in terms of cell proliferation as percent of the control cells growth within the 48 hours of treatment.
(§3) The inventors quantified the effect of exposing these cell lines to PLX-4720 on the half-maximum inhibitory concentration (IC50) (Table 1).

[3] = system: SK-Mel5; assay: as above; conditions: Homo sapiens, SK-MEL-5; SK-Mel5 cell line; read-out: half-maximum inhibitory concentration (IC50)
Description: as §1, §2, §3

[4] = system: Mel10; assay: as above; conditions: Mel10 cell line; read-out: half-maximum inhibitory concentration (IC50)
Description: as §1, §2, §3

[5] = system: SK-Mel28; assay: as above; conditions: Homo sapiens, SK-MEL-28; SK-Mel28 cell line; read-out: half-maximum inhibitory concentration (IC50)
Description: as §1, §2, §3

[6] = system: A375; assay: as above; conditions: Homo sapiens, A-375; A375 cell line; read-out: half-maximum inhibitory concentration (IC50)
Description: as §1, §2, §3

## CCCS(=O)(=O)Nc1ccc(F)c(C(=O)c2c[nH]c3ncc(Cl)cc23)c1F [PLX-4720, N-[3-[(5-Chloro-1H-pyrrolo[2,3-b]pyridin-3-yl)carbonyl]-2,4-difluorophenyl]-1-propanesulfonamide]
[1]
  ERK phosphorylation downstream of BRAF: inhibited ERK phosphorylation
[2]
  IC50: 100 nM
[3]
  IC50: 1500 nM
[4]
  IC50: > 10000 nM
[5]
  IC50: 400 nM
[6]
  IC50: 400 nM
